From PubChem BioAssay (NCI)
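The compound was tested at five concentrations on cells cultured in 96-well plates, with a 48-hour exposure period. The concentration for 50% growth inhibition is given as GI50. The concentration for full growth arrest is given as TGI.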

Legend:
Experiment in all cases: NCI-60 cell line screen, 48 h
[1] = test system: EKVX NSCLC
[2] = test system: RPMI-8226 leukemia
[3] = test system: HOP-62 NSCLC
[4] = test system: DU-145 prostate
[5] = test system: U251 CNS
[6] = test system: HCC-2998 colon
[7] = test system: A498 renal
[8] = test system: OVCAR-3 ovarian
[9] = test system: HOP-92 NSCLC
[10] = test system: MALME-3M melanoma
[11] = test system: CAKI-1 renal
[12] = test system: COLO 205 colon
[13] = test system: UACC-62 melanoma
[14] = test system: NCI-H522 lung
[15] = test system: SK-OV-3 ovarian
[16] = test system: M14 melanoma
[17] = test system: MDA-MB-231 breast
[18] = test system: BT-549 breast
[19] = test system: HL-60(TB) leukemia
[20] = test system: SK-MEL-2 melanoma
[21] = test system: 786-0 renal
[22] = test system: HT29 colon
[23] = test system: KM12 colon
[24] = test system: SK-MEL-28 melanoma
[25] = test system: SF-295 CNS
[26] = test system: SNB-19 CNS
[27] = test system: LOX IMVI melanoma
[28] = test system: K-562 leukemia
[29] = test system: ACHN renal
[30] = test system: SN12C renal
[31] = test system: SK-MEL-5 melanoma
[32] = test system: NCI-H226 lung
[33] = test system: MCF7 breast
[34] = test system: SW-620 colon
[35] = test system: MDA-MB-468 breast
[36] = test system: RXF 393 renal
[37] = test system: OVCAR-5 ovarian
[38] = test system: SF-539 CNS
[39] = test system: PC-3 prostate
[40] = test system: SR leukemia
[41] = test system: UACC-257 melanoma
[42] = test system: MOLT-4 leukemia
[43] = test system: UO-31 renal
[44] = test system: TK-10 renal
[45] = test system: NCI-H460 lung
[46] = test system: CCRF-CEM leukemia
[47] = test system: OVCAR-4 ovarian
[48] = test system: SF-268 CNS
[49] = test system: NCI-H23 lung
[50] = test system: HS 578T breast
[51] = test system: HCT-116 colon
[52] = test system: A549 NSCLC
[53] = test system: OVCAR-8 ovarian
[54] = test system: HCT-15 colon
[55] = test system: MDA-MB-435
[56] = test system: T-47D breast
[57] = test system: IGROV1 ovarian
[58] = test system: SNB-75 CNS

With `O=C(c1ccc(O)cc1)C1[C@H](c2ccccc2Br)[C@@H](c2ccccc2)NC12C(=O)Nc1ccc(Cl)cc12` (stereo partly specified) the GI50 [1] was 6.65 µM, the TGI [1] was 15.4 µM and the GI50 [2] was 3.29 µM. The TGI [2] was 43.8 µM, the GI50 [3] was 7.08 µM and the TGI [3] was 14.9 µM. For the same molecule, the GI50 [4] was 8.01 µM, the TGI [4] was 16.5 µM and the GI50 [5] was 3.46 µM. It also gave a TGI [5] of 10.8 µM, a GI50 [6] of 2.42 µM and a TGI [6] of 9.01 µM. It also gave a GI50 [7] of 6.57 µM, a TGI [7] of 13.9 µM and a GI50 [8] of 2.76 µM. For the same molecule, the TGI [8] was 9.34 µM, the GI50 [9] was 3.03 µM and the TGI [9] was 11.6 µM. For the same molecule, the GI50 [10] was 7.89 µM, the TGI [10] was 15.3 µM and the GI50 [11] was 2 µM. For the same molecule, the TGI [11] was 8.85 µM, the GI50 [12] was 7.35 µM and the TGI [12] was 15.7 µM. The GI50 [13] was 5.71 µM, the TGI [13] was 12.2 µM and the GI50 [14] was 2.23 µM. For the same molecule, the TGI [14] was 8.45 µM, the GI50 [15] was 7.69 µM and the TGI [15] was 15.4 µM. For the same molecule, the GI50 [16] was 4.77 µM, the TGI [16] was 12.4 µM and the GI50 [17] was 4.68 µM. The TGI [17] was 11.8 µM, the GI50 [18] was 2.19 µM and the TGI [18] was 9.37 µM. It also gave a GI50 [19] of 5.86 µM, a TGI [19] of 20.3 µM and a GI50 [20] of 6.49 µM. The TGI [20] was 13.8 µM, the GI50 [21] was 6.57 µM and the TGI [21] was 13.7 µM. It also gave a GI50 [22] of 7.36 µM, a TGI [22] of 17.9 µM and a GI50 [23] of 2.91 µM. It also gave a TGI [23] of 11.1 µM, a GI50 [24] of 7.51 µM and a TGI [24] of 14.7 µM. The GI50 [25] was 4.98 µM, the TGI [25] was 12.5 µM and the GI50 [26] was 5.97 µM. For the same molecule, the TGI [26] was 12.6 µM, the GI50 [27] was 5.53 µM and the TGI [27] was 13.1 µM. It also gave a GI50 [28] of 3.75 µM, a TGI [28] of 17.9 µM and a GI50 [29] of 5.39 µM. For the same molecule, the TGI [29] was 11.8 µM, the GI50 [30] was 1.7 µM and the TGI [30] was 6.32 µM. The GI50 [31] was 8.68 µM, the TGI [31] was 16.8 µM and the GI50 [32] was 1.57 µM. For the same molecule, the TGI [32] was 6.22 µM, the GI50 [33] was 3.17 µM and the TGI [33] was 13.7 µM. It also gave a GI50 [34] of 6.73 µM, a TGI [34] of 14.8 µM and a GI50 [35] of 1.61 µM. The TGI [35] was 6.96 µM, the GI50 [36] was 2.86 µM and the TGI [36] was 10.5 µM. The GI50 [37] was 6.25 µM, the TGI [37] was 13 µM and the GI50 [38] was 6.11 µM. The TGI [38] was 12.8 µM, the GI50 [39] was 2.8 µM and the TGI [39] was 11.3 µM. For the same molecule, the GI50 [40] was 2.01 µM, the TGI [40] was 9.34 µM and the GI50 [41] was 6.51 µM. For the same molecule, the TGI [41] was 13.5 µM, the GI50 [42] was 2.2 µM and the TGI [42] was 11.4 µM. For the same molecule, the GI50 [43] was 3.26 µM, the TGI [43] was 10.9 µM and the GI50 [44] was 7.76 µM. The TGI [44] was 16 µM, the GI50 [45] was 4.72 µM and the TGI [45] was 12.7 µM. It also gave a GI50 [46] of 3.49 µM, a TGI [46] of 16.5 µM and a GI50 [47] of 4.69 µM. It also gave a TGI [47] of 13.7 µM, a GI50 [48] of 3.99 µM and a TGI [48] of 13.4 µM. The GI50 [49] was 6.65 µM, the TGI [49] was 14.4 µM and the GI50 [50] was 6.2 µM. For the same molecule, the TGI [50] was 22.6 µM, the GI50 [51] was 4.12 µM and the TGI [51] was 11.4 µM. The GI50 [52] was 3.43 µM, the TGI [52] was 11.2 µM and the GI50 [53] was 6.72 µM. For the same molecule, the TGI [53] was 14.6 µM, the GI50 [54] was 6.63 µM and the TGI [54] was 16.1 µM. The GI50 [55] was 4.78 µM, the TGI [55] was 12.9 µM and the GI50 [56] was 5.51 µM. It also gave a TGI [56] of 14.9 µM, a GI50 [57] of 2.3 µM and a TGI [57] of 9.11 µM. It also gave a GI50 [58] of 1.44 µM and a TGI [58] of 8.12 µM.
